Patent US20220016183A1, “EXOSOME AND VARIOUS USES THEREOF” (PROSTEMICS CO., LTD., priority 2018, published 2022)

Tested on: Dermal papilla cells, DPC
Test: Dermal papilla cell (DPC) proliferation, CCK-8
Assay type: cell-based
Settings: 10 μM, 24 hours
Experimental: After dispensing a serum medium with 10,000 cells/well of papillary cells (Dermal papilla cells, DPC) in a 96-well microplate, the cells were incubated overnight at 37° C. in a CO2 incubator. […] After removing the treated material from each cell and dispensing the CCK-8 solution thereto, the cells were incubated in the CO2 incubator at 37° C. for 2 hours, and absorbance was measured at 450 nm.

Nc1cc(N2CCCCC2)nc(N)[n+]1[O-] [M1, Minoxidil]
DPC proliferation rate (%): 118.97%
